Experimental data taken from patent publication US20250302808A1, “DEXMEDETOMIDINE TREATMENT REGIMENS” (BioXcel Therapeutics, Inc., priority 2021, published 2025).
Like-named read-outs stand apart in the source and are kept apart here.

How the values were obtained:
[1] = Protocol: Blood samples (4 ml) were collected for pharmacokinetic analysis on inpatient Study Days 6 and 12 at 0, 2, 6, and 12 hours after the first dose of dexmedetomidine hydrochloride oromucosal film on Study Days 6 and 12.
Plasma concentration data for dexmedetomidine were analyzed by a popPK approach and reported separately. The plasma concentration data from this study were combined with PK data from other studies to develop the population PK model. The model was used to estimate exposure measures in subjects in this study through a modeling and simulation approach. • Interim data: The demographic data and baseline characteristics are given in Table 15C.

[2] = system: elderly dementia patients
Protocol: AEs, clinical laboratory tests, 12-lead ECG, Johns Hopkins Fall Risk Assessment score, and vital signs were monitored, and all observed and volunteered AEs were recorded. Blood pressure, heart rate and ECG were completed per schedule of assessments. Any abnormal clinically significant (investigator determined) vital sign measurement, clinical laboratory test, physical examination finding, or ECG parameter were repeated, until the value returned to baseline (or within normal limits) or the investigator deemed the abnormality to be of no clinical significance. Orthostatic assessments followed the CDC guidelines for the elderly (e.g. blood pressure upon standing for 1, 3 and 5 minutes). Safety and tolerability assessments were continued until the morning of Day 2 and Day 3 and were repeated on Day 7=2 days.
Safety was assessed during the study by the monitoring and recording of AEs, clinical laboratory test results (hematology, biochemistry, and urinalysis), vital sign measurements (systolic and diastolic blood pressures, heart rate measured as pulse, respiratory rate, and temperature), ECG, and physical examination findings.
Adverse events (AEs) were characterized by type, severity, seriousness, and relationship to treatment. Adverse events were coded by preferred term and system organ class using MedDRA version 20.0.

opioid withdrawal = system: opioid withdrawal
Protocol: (§1) • COWS and SOWS scores during Days 6-12. COWS and SOWS scores on Days 6-12 were analyzed using a mixed-effects, repeated-measures model. […] Kaplan-Meier estimates were used to generate survival curves for each treatment group. […] Differences in mean agitation and sedation were compared between the treatment groups using the same mixed-effects, repeated-measures model described above.
Kaplan-Meier estimates were also used to generate survival curves over time in each treatment group. Logistic regression model was used to compare the dexmedetomidine hydrochloride oromucosal film and placebo groups on the numbers of subjects dropping out after opioid discontinuation.

[3] = system: opioid withdrawal symptoms
Protocol: as §1

[4] = remark: listed apart in the source
Protocol: This was an adaptive Phase Ib/2 trial design. It was a randomized, double-blind, placebo-controlled, multiple ascending dose study assessing efficacy, pharmacokinetics, safety and tolerability of dexmedetomidine hydrochloride dosing in adult (65 years old and older) males and females with acute agitation associated with dementia.
The drug film was retained in the sublingual cavity until dissolved. Participants were also evaluated for local irritation around the area where the film was placed. Efficacy and safety assessments were conducted periodically before and after dosing. The next cohort was dosed after completing accrual of most prior panels, in accord with regular ongoing periodic safety and PK review as eligible subjects were assigned, dosed, and data became available.
Blood samples (4 mL) were collected at 0.5, 1, 2, 4, 8- and 24-hours post-dose per Schedule of Events (Table 9A).
All pharmacokinetic parameters were calculated using non-compartmental analysis using WinNonlin. Actual sampling times were used in all pharmacokinetic analyses. […] Other PK analyses might be performed as appropriate.
Plasma samples were collected at 0.5, 1, 2, (2.5 in re-dose subjects), 4 and 8 hr.

[5] = system: subjects undergoing opioid withdrawal; conditions: Fishman et al. 2019, cited from earlier work

Row | SMILES | plasma concentration as dose increased ([1]; 30 μg to 240 μg, days 6 and 12) | mean plasma concentrations between 2-hour and 12-hour timepoints ([1]; all doses) | consequences of doses higher than about 90 μg [2] | retention rate (opioid withdrawal; Day 6, 120 μg dose) | retention rate (opioid withdrawal; Day 6, 180 μg dose) | subjective rating of insomnia on SOWS scale ([3]; Day 7, about 240 μg twice daily) | ratings of anxiety or irritability on COWS scale ([3]; Day 8, about 240 μg twice daily) | exposure levels in elderly dementia patients vs schizophrenia patients ([4]; Table 9E) | AUC higher in dementia patients than in schizophrenia (and bipolar disorder) patients ([4]; same dose) | Cmax higher in dementia patients than in schizophrenia (and bipolar disorder) patients ([4]; same dose) | Adverse Event Bradycardia ([5]; 2.16 mg (N = 229)) | Adverse Event Dizziness ([5]; 2.16 mg (N = 229)) | Adverse Event Orthostatic hypotension ([5]; 2.16 mg (N = 229)) | Adverse Event Somnolence ([5]; 2.16 mg (N = 229)) | Adverse Event Bradycardia ([5]; 2.88 mg (N = 229)) | Adverse Event Dizziness ([5]; 2.88 mg (N = 229)) | Adverse Event Orthostatic hypotension ([5]; 2.88 mg (N = 229)) | Adverse Event Somnolence ([5]; 2.88 mg (N = 229))
1 | Cc1cccc([C@H](C)c2cnc[nH]2)c1C [dexmedetomidine, (+) 4-(S)-[1-(2,3-dimethylphenyl)ethyl]-1H-imidazole] | dose dependent increases | declined over time | negative consequences | at least 40% | at least 50% | significant reduction | significant reduction | higher exposure levels | about 55% | about 38% | – | – | – | – | – | – | – | –
2 | CC(Oc1c(Cl)cccc1Cl)C1=NCCN1 (stereo not drawn) [lofexidine] | – | – | – | – | – | – | – | – | – | – | 54 (24) n (%) | 44 (19) n (%) | 67 (29) n (%) | 25 (10.9) n (%) | 70 (32) n (%) | 51 (23.0) n (%) | 94 (42) n (%) | 29 (13.1) n (%)
